Measured values as given in ChEMBL document CHEMBL3885881, “DrugMatrix”.

Species on record: Rattus norvegicus
Assay: DrugMatrix - Regimen: Daily Repeat
Format: toxicity, organism-based, Sprague-Dawley
Set-up: regimen Daily Repeat, gender Male, age 6-8 weeks
Conditions: in vivo, iv, vehicle 100 % SALINE; for ABSOLUTE BASOPHIL / ABSOLUTE EOSINOPHIL / ABSOLUTE LYMPHOCYTE / ABSOLUTE MONOCYTE / ABSOLUTE SEGMENTED NEUTROPHIL / BASOPHIL / EOSINOPHIL / ERYTHROCYTE COUNT / HEMATOCRIT / HEMOGLOBIN / LEUKOCYTE COUNT / LYMPHOCYTE / MEAN CORPUSCULAR HEMOGLOBIN / MEAN CORPUSCULAR HEMOGLOBIN CONCENTRATION / MEAN CORPUSCULAR VOLUME / MONOCYTE / NEUTROPHIL / NUCLEATED RED BLOOD CELLS / PLATELET COUNT: tissue Blood; for ALANINE AMINOTRANSFERASE / ALBUMIN / ALKALINE PHOSPHATASE / ASPARTATE AMINOTRANSFERASE / BLOOD UREA NITROGEN / CARBON DIOXIDE / CHLORIDE / CHOLESTEROL / CREATINE PHOSPHOKINASE / CREATININE / GLUCOSE / LACTATE DEHYDROGENASE / LIPASE / PHOSPHORUS / POTASSIUM / SODIUM / TOTAL BILIRUBIN / TOTAL PROTEIN / URIC ACID: tissue Plasma
[1] = 0 mg/kg, 72 h, dose level Control, time 3 day
[2] = 0 mg/kg, 120 h, dose level Control, time 5 day
[3] = 23 mg/kg, 72 h, dose level High, time 3 day

SMILES: COC(=O)C[C@](O)(CCC(C)(C)O)C(=O)O[C@@H]1C(OC)=C[C@]23CCCN2CCc2cc4c(cc2[C@H]13)OCO4 [HARRINGTONINE]
- ABSOLUTE BASOPHIL [1]: 0 CELLS/uL
- ABSOLUTE EOSINOPHIL [1]: 15.33 CELLS/uL
- ABSOLUTE LYMPHOCYTE [1]: 9513.5 CELLS/uL
- ABSOLUTE MONOCYTE [1]: 94.67 CELLS/uL
- ABSOLUTE SEGMENTED NEUTROPHIL [1]: 709.83 CELLS/uL
- BASOPHIL [1]: 0%
- EOSINOPHIL [1]: 0.17%
- ERYTHROCYTE COUNT [1]: 5.63 x10E6/uL
- HEMATOCRIT [1]: 34.63%
- HEMOGLOBIN [1]: 13.6 G/DL
- LEUKOCYTE COUNT [1]: 10.33 x10E3/uL
- LYMPHOCYTE [1]: 92%
- MEAN CORPUSCULAR HEMOGLOBIN [1]: 24.17 pg
- MEAN CORPUSCULAR HEMOGLOBIN CONCENTRATION [1]: 39.28 G/DL
- MEAN CORPUSCULAR VOLUME [1]: 61.57 fL
- MONOCYTE [1]: 0.83%
- NEUTROPHIL [1]: 7%
- NUCLEATED RED BLOOD CELLS [1]: 0 /100WBC
- PLATELET COUNT [1]: 903.17 x10E3/uL
- ALANINE AMINOTRANSFERASE [1]: 49.33 u/L
- ALBUMIN [1]: 4.27 G/DL
- ALKALINE PHOSPHATASE [1]: 400.83 u/L
- ASPARTATE AMINOTRANSFERASE [1]: 77.5 u/L
- BLOOD UREA NITROGEN [1]: 16.33 mg/dL
- CARBON DIOXIDE [1]: 29.33 mmol/L
- CHLORIDE [1]: 99.67 MEQ/L
- CHOLESTEROL [1]: 66.67 mg/dL
- CREATINE PHOSPHOKINASE [1]: 275.33 u/L
- CREATININE [1]: 0.18 mg/dL
- GLUCOSE [1]: 163.83 mg/dL
- LACTATE DEHYDROGENASE [1]: 125.33 u/L
- LIPASE [1]: 10 u/L
- PHOSPHORUS [1]: 12.12 mg/dL
- POTASSIUM [1]: 6.68 MEQ/L
- SODIUM [1]: 144.02 MEQ/L
- TOTAL BILIRUBIN [1]: 0.18 mg/dL
- TOTAL PROTEIN [1]: 5.87 G/DL
- URIC ACID [1]: 1.63 mg/dL
- ABSOLUTE BASOPHIL [2]: 0 CELLS/uL
- ABSOLUTE EOSINOPHIL [2]: 48.83 CELLS/uL
- ABSOLUTE LYMPHOCYTE [2]: 14562 CELLS/uL
- ABSOLUTE MONOCYTE [2]: 138.67 CELLS/uL
- ABSOLUTE SEGMENTED NEUTROPHIL [2]: 1733.83 CELLS/uL
- BASOPHIL [2]: 0%
- EOSINOPHIL [2]: 0.33%
- ERYTHROCYTE COUNT [2]: 5.89 x10E6/uL
- HEMATOCRIT [2]: 36.7%
- HEMOGLOBIN [2]: 14.42 G/DL
- LEUKOCYTE COUNT [2]: 16.48 x10E3/uL
- LYMPHOCYTE [2]: 88.83%
- MEAN CORPUSCULAR HEMOGLOBIN [2]: 24.52 pg
- MEAN CORPUSCULAR HEMOGLOBIN CONCENTRATION [2]: 39.3 G/DL
- MEAN CORPUSCULAR VOLUME [2]: 62.37 fL
- MONOCYTE [2]: 0.67%
- NEUTROPHIL [2]: 10.17%
- NUCLEATED RED BLOOD CELLS [2]: 0 /100WBC
- PLATELET COUNT [2]: 1076.5 x10E3/uL
- ALANINE AMINOTRANSFERASE [2]: 44.67 u/L
- ALBUMIN [2]: 4.23 G/DL
- ALKALINE PHOSPHATASE [2]: 357.33 u/L
- ASPARTATE AMINOTRANSFERASE [2]: 84.83 u/L
- BLOOD UREA NITROGEN [2]: 15.5 mg/dL
- CARBON DIOXIDE [2]: 27 mmol/L
- CHLORIDE [2]: 99.5 MEQ/L
- CHOLESTEROL [2]: 63.67 mg/dL
- CREATINE PHOSPHOKINASE [2]: 331.33 u/L
- CREATININE [2]: 0.18 mg/dL
- GLUCOSE [2]: 167.33 mg/dL
- LACTATE DEHYDROGENASE [2]: 320.17 u/L
- LIPASE [2]: 9.17 u/L
- PHOSPHORUS [2]: 12.05 mg/dL
- POTASSIUM [2]: 6.54 MEQ/L
- SODIUM [2]: 143.02 MEQ/L
- TOTAL BILIRUBIN [2]: 0.2 mg/dL
- TOTAL PROTEIN [2]: 6.23 G/DL
- URIC ACID [2]: 2.07 mg/dL
- ABSOLUTE BASOPHIL [3]: 0 CELLS/uL
- ABSOLUTE EOSINOPHIL [3]: 0 CELLS/uL
- ABSOLUTE LYMPHOCYTE [3]: 9185.67 CELLS/uL
- ABSOLUTE MONOCYTE [3]: 0 CELLS/uL
- ABSOLUTE SEGMENTED NEUTROPHIL [3]: 547.67 CELLS/uL
- BASOPHIL [3]: 0%
- EOSINOPHIL [3]: 0%
- ERYTHROCYTE COUNT [3]: 5.37 x10E6/uL
- HEMATOCRIT [3]: 32.9%
- HEMOGLOBIN [3]: 12.87 G/DL
- LEUKOCYTE COUNT [3]: 9.73 x10E3/uL
- LYMPHOCYTE [3]: 94.33%
- MEAN CORPUSCULAR HEMOGLOBIN [3]: 23.97 pg
- MEAN CORPUSCULAR HEMOGLOBIN CONCENTRATION [3]: 39.1 G/DL
- MEAN CORPUSCULAR VOLUME [3]: 61.2 fL
- MONOCYTE [3]: 0%
- NEUTROPHIL [3]: 5.67%
- NUCLEATED RED BLOOD CELLS [3]: 0 /100WBC
- PLATELET COUNT [3]: 883 x10E3/uL
- ALANINE AMINOTRANSFERASE [3]: 44.67 u/L
- ALBUMIN [3]: 3.57 G/DL
- ALKALINE PHOSPHATASE [3]: 237.67 u/L
- ASPARTATE AMINOTRANSFERASE [3]: 76 u/L
- BLOOD UREA NITROGEN [3]: 14.67 mg/dL
- CARBON DIOXIDE [3]: 24.67 mmol/L
- CHLORIDE [3]: 101 MEQ/L
- CHOLESTEROL [3]: 58.33 mg/dL
- CREATINE PHOSPHOKINASE [3]: 746.33 u/L
- CREATININE [3]: 0.17 mg/dL
- GLUCOSE [3]: 168.33 mg/dL
- LACTATE DEHYDROGENASE [3]: 240.33 u/L
- LIPASE [3]: 8 u/L
- PHOSPHORUS [3]: 11.7 mg/dL
- POTASSIUM [3]: 5.94 MEQ/L
- SODIUM [3]: 141.53 MEQ/L
- TOTAL BILIRUBIN [3]: 0.2 mg/dL
- TOTAL PROTEIN [3]: 5.2 G/DL
- URIC ACID [3]: 1.93 mg/dL
